Test [1] has as its system genotype 1a (H77) stable HCV replicon in Huh-7-derived cells. Description: Stable subgenomic HCV replicon EC50, genotype 1a (Renilla luciferase). In kind it is cell-based, hepatitis C virus. As to conditions: Hepatitis C virus, stable replicon genotype 1a, 72 h, read-out: EC50 1A RLUC. The essentials:
(§1)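 Compounds, three-fold diluted, were applied to Huh-7-derived cells harbouring luciferase replicons (genotype 1a H77, 1b Con1, 2a JFH-1, 4a ED43, with strain-specific adaptive mutations). Seventy-two hours later, intracellular replication was gauged by Renilla luciferase activity and EC50 derived by regression.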
(Replicon systems follow genome replication, usually without infectious particles.)

Test [2] deals with genotype 2a (JFH-1) stable HCV replicon in Huh-7-derived cells. Description: Stable subgenomic HCV replicon EC50, genotype 2a (Renilla luciferase). The format is cell-based, hepatitis C virus. The note with it: Hepatitis C virus, stable replicon genotype 2a, 72 h, read-out: EC50 2A RLUC. The method, boiled down: as §1
Test [3] relates to genotype 1b (Con1) stable HCV replicon in Huh-7-derived cells. Put plainly: Stable subgenomic HCV replicon EC50, genotype 1b (Renilla luciferase). The format is cell-based, hepatitis C virus. The note with it: Hepatitis C virus, stable replicon genotype 1b, 72 h, read-out: EC50 1B RLUC. The method, boiled down:
as §1

The subject of test [4] is genotype 1b NS3/4a protease inhibitor resistant variant D168A transient HCV replicon in Huh-7-derived cells. Description: Transient-transfected HCV replicon EC50, genotype 1b D168A. The format is cell-based, hepatitis C virus. The note with it: Hepatitis C virus, 72 h, read-out: EC50 1B D168A, transient-transfected replicon genotype 1b D168A resistant variant, 72 h.
Test [5] concerns genotype 3a (S52) stable HCV replicon in Huh-7-derived cells. Description: Stable subgenomic HCV replicon EC50, genotype 3a (Renilla luciferase). As to conditions: Hepatitis C virus, 72 h, read-out: EC50 3A RLUC. The format is cell-based, hepatitis C virus.
In test [6] the target is HCV NS3 protease domain genotype 1b (Hepatitis C virus genotype 1b (isolate Con1), UniProt Q9WMX2, E1202G). Description: Ki determination, NS3 protease genotype 1b (fluorogenic depsipeptide substrate). In kind it is biochemical. As to conditions: 50 pM enzyme, NS4A peptide. The method, then: Purified NS3 protease domain (amino acids 1-181) of the genotype 1b and 3a virus were generated as above.
Sequence of HCV NS3 protease domain genotype 1b (Q9WMX2 1027-1208 E1202G): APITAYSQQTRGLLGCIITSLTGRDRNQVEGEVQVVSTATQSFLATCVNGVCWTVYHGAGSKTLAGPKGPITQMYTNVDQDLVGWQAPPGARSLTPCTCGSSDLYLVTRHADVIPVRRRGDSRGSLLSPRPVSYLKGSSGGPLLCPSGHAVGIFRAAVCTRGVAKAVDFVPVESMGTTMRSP
Reactions were run at room temperature in buffer consisting of 50 mM HEPES, 40% glycerol, 0.05% Triton X-100, 10 mM DTT, and 10% DMSO. The final assay solutions contained 50 pM NS3 genotype 1 b protease or 200 pM genotype 3a protease, 20 μM NS4A peptide, and 4 μM substrate (genotype 1b) or 2 μM substrate (genotype 3a). Inhibitor concentrations varied from 100 nM to 5 pM in 3-fold dilutions, and no-inhibitor controls were included.
Compound dilutions were made in DMSO at 20× final concentration. Reaction mixtures were prepared in 96-well assay plates. A solution of enzyme and NS4A peptide in assay buffer (25 μL volume with both reagents at 4× final concentration) was mixed with 45 μL assay buffer and 5 μL of either inhibitor or DMSO, and pre-incubated at room temperature for 1 hour. The reaction was started by addition of 25 μL substrate solution at 4× final concentration. Plates were mixed vigorously for 5-10 seconds and reactions were allowed to proceed for 90 minutes, fluorescence was measured every 30 s between 90 and 120 minutes reaction time using a Tecan InfiniTe M1000 or PerkinElmer Envision multimode plate reader with an excitation wavelength of 340 nm and an emission wavelength of 490 nm.
To determine the Ki, rates were plotted as a function of inhibitor concentration, and the data were fit with equation 1 (Morrison, J. F., Biochimica et Biophysica Acta 1969, 185, 269-286) to calculate Ki^app using GraphPad Prism 5. […] Ki was calculated from Ki^app/(1+[[S]/Km]).

Test [7] has as its target HCV NS3 protease domain genotype 3a (Hepatitis C virus genotype 3a, UniProt Q81258). Put plainly: Ki determination, NS3 protease genotype 3a (fluorogenic depsipeptide substrate). The note with it: 200 pM enzyme, NS4A peptide. The format is biochemical. The essentials:
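The NS3 protease domain (aa 1-181) with 20 μM NS4A peptide was used at 50 pM with 4 μM substrate (1b) or at 200 pM with 2 μM substrate (3a). Inhibitors (100 nM-5 pM) were pre-incubated 1 h at room temperature in HEPES/glycerol/DTT buffer with 10% DMSO. Steady-state rates (90-120 min) gave Ki via the Morrison equation, corrected for active enzyme and [S]/Km.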

For test [8], the system named is genotype 4a (ED43) stable HCV replicon in Huh-7-derived cells. Put plainly: Stable subgenomic HCV replicon EC50, genotype 4a (Renilla luciferase). As to conditions: Hepatitis C virus, 72 h, read-out: EC50 4A RLUC. The format is cell-based, hepatitis C virus. The method, boiled down: as §1
For test [9], the system named is genotype 1a NS3/4a protease inhibitor resistant variant R155K transient HCV replicon in Huh-7-derived cells. Description: Transient-transfected HCV replicon EC50, genotype 1a R155K. In kind it is cell-based, hepatitis C virus. As to conditions: Hepatitis C virus, 72 h, read-out: EC50 1A R155K, transient-transfected replicon genotype 1a R155K resistant variant, 72 h.

Test [10] relates to genotype 1a (H77) wild type transient HCV replicon in Huh-7-derived cells. Put plainly: Transient-transfected HCV replicon EC50, genotype 1a wild type. The format is cell-based, hepatitis C virus. As to conditions: Hepatitis C virus, 72 h, transient-transfected replicon genotype 1a wild type, read-out: EC50 1A WT.
Test [11] concerns genotype 1b (Con1) wild type transient HCV replicon in Huh-7-derived cells. Put plainly: Transient-transfected HCV replicon EC50, genotype 1b wild type. In kind it is cell-based, hepatitis C virus. The note with it: Hepatitis C virus, 72 h, transient-transfected replicon genotype 1b wild type, read-out: EC50 1B WT.

Structures are written as SMILES. pEC50, pKi: −log10 of the molar value.

The text below walks through data of patent US10335409B2 (priority 2012, dated 2019).

As usually defined, the pEC50 is −log10 of the EC50, conventionally taken in molar units. Usually pKi stands for the negative decadic logarithm of the Ki, by convention in mol/L.

Sequence of HCV NS3 protease domain genotype 3a (Q81258 whole entry, looked up, the tested form may be a part): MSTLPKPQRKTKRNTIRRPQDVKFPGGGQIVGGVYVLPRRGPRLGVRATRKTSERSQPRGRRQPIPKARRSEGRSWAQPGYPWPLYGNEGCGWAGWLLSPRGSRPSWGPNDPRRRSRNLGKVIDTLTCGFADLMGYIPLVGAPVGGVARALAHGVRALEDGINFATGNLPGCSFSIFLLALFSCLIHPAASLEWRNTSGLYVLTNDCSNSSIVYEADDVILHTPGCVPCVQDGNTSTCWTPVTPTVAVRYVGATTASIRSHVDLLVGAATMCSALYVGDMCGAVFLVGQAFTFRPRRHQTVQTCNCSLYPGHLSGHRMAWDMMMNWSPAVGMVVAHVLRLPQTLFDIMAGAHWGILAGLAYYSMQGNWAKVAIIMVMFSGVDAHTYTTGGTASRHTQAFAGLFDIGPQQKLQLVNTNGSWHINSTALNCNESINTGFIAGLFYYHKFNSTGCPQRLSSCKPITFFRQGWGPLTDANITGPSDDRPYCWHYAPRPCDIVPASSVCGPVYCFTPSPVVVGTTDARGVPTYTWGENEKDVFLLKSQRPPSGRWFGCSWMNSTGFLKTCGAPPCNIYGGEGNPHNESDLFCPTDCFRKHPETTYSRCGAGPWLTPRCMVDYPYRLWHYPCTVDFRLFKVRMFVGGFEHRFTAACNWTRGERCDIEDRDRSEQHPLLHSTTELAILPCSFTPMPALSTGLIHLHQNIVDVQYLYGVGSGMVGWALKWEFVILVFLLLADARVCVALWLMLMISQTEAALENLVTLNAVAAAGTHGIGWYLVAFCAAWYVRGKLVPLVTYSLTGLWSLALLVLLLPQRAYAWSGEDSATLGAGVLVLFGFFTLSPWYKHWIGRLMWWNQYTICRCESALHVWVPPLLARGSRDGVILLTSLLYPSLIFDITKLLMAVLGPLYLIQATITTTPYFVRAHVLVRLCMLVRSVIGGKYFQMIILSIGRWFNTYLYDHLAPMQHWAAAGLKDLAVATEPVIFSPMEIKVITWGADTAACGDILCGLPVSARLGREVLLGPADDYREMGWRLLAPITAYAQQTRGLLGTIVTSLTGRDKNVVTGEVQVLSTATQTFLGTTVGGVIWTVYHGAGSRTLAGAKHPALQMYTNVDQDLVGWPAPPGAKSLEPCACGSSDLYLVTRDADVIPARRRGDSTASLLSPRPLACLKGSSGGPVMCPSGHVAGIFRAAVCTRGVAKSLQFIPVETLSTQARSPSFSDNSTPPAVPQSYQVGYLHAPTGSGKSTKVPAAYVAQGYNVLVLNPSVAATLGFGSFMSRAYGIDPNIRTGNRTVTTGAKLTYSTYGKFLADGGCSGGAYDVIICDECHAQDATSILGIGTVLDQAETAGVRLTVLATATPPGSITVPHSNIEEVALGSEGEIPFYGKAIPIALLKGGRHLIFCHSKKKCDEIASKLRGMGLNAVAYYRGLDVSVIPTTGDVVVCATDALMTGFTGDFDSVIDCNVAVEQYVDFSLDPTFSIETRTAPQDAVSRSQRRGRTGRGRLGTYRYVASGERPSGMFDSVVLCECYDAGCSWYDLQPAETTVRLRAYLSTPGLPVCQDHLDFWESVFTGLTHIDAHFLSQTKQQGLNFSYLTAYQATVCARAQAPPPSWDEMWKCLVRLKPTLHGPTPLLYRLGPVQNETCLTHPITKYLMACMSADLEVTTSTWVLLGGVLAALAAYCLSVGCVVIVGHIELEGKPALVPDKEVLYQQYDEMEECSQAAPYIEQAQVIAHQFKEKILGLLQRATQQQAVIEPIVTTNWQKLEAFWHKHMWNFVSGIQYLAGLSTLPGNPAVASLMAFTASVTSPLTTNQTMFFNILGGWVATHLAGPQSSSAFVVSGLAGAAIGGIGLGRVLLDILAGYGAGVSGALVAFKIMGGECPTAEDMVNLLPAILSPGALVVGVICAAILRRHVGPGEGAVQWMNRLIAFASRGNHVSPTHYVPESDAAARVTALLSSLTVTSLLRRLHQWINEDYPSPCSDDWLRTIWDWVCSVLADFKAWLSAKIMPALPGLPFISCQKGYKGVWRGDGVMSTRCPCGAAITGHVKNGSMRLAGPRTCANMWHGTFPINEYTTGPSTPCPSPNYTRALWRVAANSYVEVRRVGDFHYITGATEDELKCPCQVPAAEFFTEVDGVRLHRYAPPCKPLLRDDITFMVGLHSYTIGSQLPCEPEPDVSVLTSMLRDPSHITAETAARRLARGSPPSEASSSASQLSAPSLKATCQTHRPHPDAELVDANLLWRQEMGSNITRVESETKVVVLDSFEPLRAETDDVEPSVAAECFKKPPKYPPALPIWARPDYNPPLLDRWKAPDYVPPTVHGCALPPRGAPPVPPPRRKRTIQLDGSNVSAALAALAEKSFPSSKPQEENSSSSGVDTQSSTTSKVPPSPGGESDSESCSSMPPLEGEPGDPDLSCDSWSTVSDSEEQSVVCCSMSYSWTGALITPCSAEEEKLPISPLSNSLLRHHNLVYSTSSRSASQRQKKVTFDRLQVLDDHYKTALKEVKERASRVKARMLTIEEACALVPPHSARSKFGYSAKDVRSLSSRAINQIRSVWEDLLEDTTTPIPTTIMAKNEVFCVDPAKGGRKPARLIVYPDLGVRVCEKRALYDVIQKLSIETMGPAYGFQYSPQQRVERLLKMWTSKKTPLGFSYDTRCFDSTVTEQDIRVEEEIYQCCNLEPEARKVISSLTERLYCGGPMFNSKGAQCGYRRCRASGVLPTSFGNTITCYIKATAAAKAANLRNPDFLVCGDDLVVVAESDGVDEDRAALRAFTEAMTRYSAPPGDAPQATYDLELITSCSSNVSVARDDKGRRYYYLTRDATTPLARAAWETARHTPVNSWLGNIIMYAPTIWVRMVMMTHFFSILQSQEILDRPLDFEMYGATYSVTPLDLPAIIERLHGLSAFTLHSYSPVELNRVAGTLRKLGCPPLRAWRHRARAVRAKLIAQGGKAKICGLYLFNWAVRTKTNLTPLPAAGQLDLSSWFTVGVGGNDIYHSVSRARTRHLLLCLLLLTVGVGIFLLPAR

Take `COc1ccc2nc3c(nc2c1)O[C@H]1CN(C(=O)[C@H](C(C)(C)C)NC(=O)O[C@@H]2C[C@H]2CCCCC3)[C@H](C(=O)N[C@]2(C(=O)NS(=O)(=O)C3(C)CC3)C[C@H]2C(F)F)[C@@H]1CC(C)C` [Example 30, (1aR,5S,8S,9S,10R,22aR)-5-tert-butyl-N-[(1R,2R)-2-(difluoromethyl)-1-{[(1-methylcyclopropyl)sulfonyl]carbamoyl}cyclopropyl]-14-methoxy-9-(2-methylpropyl)-3,6-dioxo-1,1a,3,4,5,6,9,10,18,19,20,21,22,22a-tetradecahydro-8H-7,10-methanocyclopropa[18,19][1,10,3,6]dioxadiazacyclononadecino[11,12-b]quinoxaline-8-carboxamide]: the pEC50 in test [1] is 7.26; in test [2], 7.33; in [3], 7.46; in test [4], 6.30; in test [5], 5.61; in test [8], 7.51. The pEC50 is 6.53 in [9], 7.39 in test [10] and 7.51 in test [11]. For the same compound, the pKi in test [6] was 9.85; in [7], 9.20.
`CC[C@@H]1[C@@H]2CN(C(=O)[C@H](C(C)(C)C)NC(=O)O[C@@H]3[C@H]4CC[C@H](C4)[C@H]3CCCCCc3nc4ccc(OC)cc4nc3O2)[C@@H]1C(=O)N[C@]1(C(=O)NS(=O)(=O)C2CC2)C[C@H]1C(F)F` [Example 13, (1R,4S,4aR,8S,11S,12S,13R,25aR)-8-tert-butyl-N-[(1R,2R)-1-[(cyclopropylsulfonyl)carbamoyl]-2-(difluoromethyl)cyclopropyl]-12-ethyl-17-methoxy-6,9-dioxo-2,3,4,4a,6,7,8,9,12,13,21,22,23,24,25,25a-hexadecahydro-1H,11H-1,4:10,13-dimethanoquinoxalino[2,3-k][1,10,3,6]benzodioxadiazacyclononadecine-11-carboxamide]: the negative-log EC50 (pEC50) in test [1] is 7.89; in test [2] it was 7.59; in test [3], 8.02; in test [4] it was 6.68; in test [5] it was 6.16; in [8], 7.96. Also, the pEC50 is 7.23 in test [9], 8.07 in test [10] and 8.51 in test [11]. Further, the pKi in [6] is 10.40; in [7], 9.74.
`COc1ccc2nc3c(nc2c1)O[C@H]1CN(C(=O)[C@H](C2(C)CCCC2)NC(=O)O[C@@H]2C[C@H]2CCCCC3)[C@H](C(=O)N[C@]2(C(=O)NS(=O)(=O)C3(C)CC3)C[C@H]2C(F)F)[C@@H]1C` [Example 38, (1aR,5S,8S,9S,10R,22aR)—N-[(1R,2R)-2-(difluoromethyl)-1-{[(1-methylcyclopropyl)sulfonyl]carbamoyl}cyclopropyl]-14-methoxy-9-methyl-5-(1-methylcyclopentyl)-3,6-dioxo-1,1a,3,4,5,6,9,10,18,19,20,21,22,22a-tetradecahydro-8H-7,10-methanocyclopropa[18,19][1,10,3,6]dioxadiazacyclononadecino[11,12-b]quinoxaline-8-carboxamide]: the pEC50 in test [1] was 8.11; in [2] it was 8.27; in [3], 8.38; in [4] it was 7.60; in test [5], 6.82; in test [8] it was 8.26. In addition, the results for the pEC50 in [9], in test [10] and in test [11] were 8.08, 8.35 and 8.55, respectively. The pKi in [6] is 10.52; in test [7] it was 9.15.
Consider `COc1ccc2nc3c(nc2c1)O[C@H]1CN(C(=O)[C@H](C(C)(C)C)NC(=O)O[C@@H]2[C@H]4CC[C@H](C4)[C@H]2CCCCC3)[C@H](C(=O)N[C@]2(C(=O)NS(=O)(=O)C3CC3)C[C@H]2C(F)F)[C@@H]1C` [Example 26, (1R,4S,4aR,8S,11S,12S,13R,25aR)-8-tert-butyl-N-[(1R,2R)-1-[(cyclopropylsulfonyl)carbamoyl]-2-(difluoromethyl)cyclopropyl]-17-methoxy-12-methyl-6,9-dioxo-2,3,4,4a,6,7,8,9,12,13,21,22,23,24,25,25a-hexadecahydro-1H,11H-1,4:10,13-dimethanoquinoxalino[2,3-k][1,10,3,6]benzodioxadiazacyclononadecine-11-carboxamide], for which the pEC50 is 8.20 in test [1]; 7.92 in test [2]; 8.37 in [3]; 6.96 in test [4]; 6.53 in test [5]; 8.22 in test [8]. Besides, the results for the pEC50 in [9], in [10] and in test [11] were 7.92, 8.44 and 8.72, respectively. The results for the pKi in [6] and in test [7] were 10.30 and 9.77, respectively.
In the case of `COc1ccc2nc3c(nc2c1)O[C@H]1CN(C(=O)[C@H](C(C)(C)C)NC(=O)O[C@@H]2CCN(C(C)=O)C2CCCCC3)[C@H](C(=O)N[C@]2(C(=O)NS(=O)(=O)C3(C)CC3)C[C@H]2C(F)F)[C@@H]1C` (stereo partly drawn) [Example 80, (3aR,7S,10S,11S,12R)-1-acetyl-7-tert-butyl-N-[(1R,2R)-2-(difluoromethyl)-1-{[(1-methylcyclopropyl)sulfonyl]carbamoyl}cyclopropyl]-16-methoxy-11-methyl-5,8-dioxo-1,2,3,3a,5,6,7,8,11,12,20,21,22,23,24,24a-hexadecahydro-10H-9,12-methanopyrrolo[2′,3′:18,19][1,10,3,6]dioxadiazacyclononadecino[11,12-b]quinoxaline-10-carboxamide], the pEC50 was 5.95 in test [1]; 6.13 in test [2]; 6.46 in test [3]; 6.35 in [4]; 4.35 in [5]; 5.93 in test [8]. Moreover, the pEC50 in test [9] was 5.54; in test [10], 6.39; in [11] it was 7.28. For the same compound, the pKi in test [6] is 9.31; in [7], 7.89.
For the compound `CC[C@@H]1[C@@H]2CN(C(=O)[C@H](C3CCCC3)NC(=O)O[C@@H]3C[C@H]3CCCCCc3nc4ccc(OC)cc4nc3O2)[C@@H]1C(=O)N[C@]1(C(=O)NS(=O)(=O)C2(C)CC2)C[C@H]1C(F)F` [Example 14, (1aR,5S,8S,9S,10R,22aR)-5-cyclopentyl-N-[(1R,2R)-2-(difluoromethyl)-1-{[(1-methylcyclopropyl)sulfonyl]carbamoyl}cyclopropyl]-9-ethyl-14-methoxy-3,6-dioxo-1,1a,3,4,5,6,9,10,18,19,20,21,22,22a-tetradecahydro-8H-7,10-methanocyclopropa[18,19][1,10,3,6]dioxadiazacyclononadecino[11,12-b]quinoxaline-8-carboxamide], the pEC50 was 8.01 in test [1]; 8.15 in [2]; 8.17 in [3]; 7.00 in [4]; 6.51 in [5]; 8.14 in test [8]. Moreover, the pEC50 is 7.68 in test [9], 8.13 in test [10] and 8.40 in test [11]. For the same compound, the pKi in test [6] is 10.15; in test [7] it was 9.62.
